{"source": "patent US9801901B2", "about": "“Alginate oligomers for use in overcoming multidrug resistance in bacteria” (priority 2009, dated 2017)", "key": {"[1]": {"system": "PA01 Pseudomonas aeruginosa ATCC 15692", "assay": "MIC assay, two-fold antibiotic dilutions in CAMHB with alginate oligomer, no visible growth", "format": "cell-based"}, "[2]": {"system": "Pseudomonas aeruginosa ATCC 39324, mucoid type strain (R79)", "assay": "MIC assay, CAMHB with alginate oligomer, no visible growth", "format": "cell-based"}, "[3]": {"system": "Pseudomonas aeruginosa CFA 24-1, clinical mucoid strain (R80)", "assay": "MIC assay, CAMHB with alginate oligomer, no visible growth", "format": "cell-based"}, "[4]": {"system": "Pseudomonas aeruginosa MDR R22 from China (V1)", "assay": "MIC assay, CAMHB with alginate oligomer, no visible growth", "format": "cell-based", "conditions": "Pseudomonas aeruginosa, Table 1, V1 MDR R22 PA", "from_the_text": "(§1) The study described in Example 1 was repeated with the following strains of bacteria and antibiotics as detailed in Tables 4, 5 and 6."}, "[5]": {"system": "Pseudomonas aeruginosa MDR 301 from Poland (V2)", "assay": "MIC assay, CAMHB with alginate oligomer, no visible growth", "format": "cell-based", "conditions": "Pseudomonas aeruginosa, Table 1, V2 MDR 301 PA"}, "[6]": {"system": "Klebsiella pneumoniae KP05 506 from India (V3)", "assay": "MIC assay, CAMHB with alginate oligomer, no visible growth", "format": "cell-based", "conditions": "for MIC: Klebsiella pneumoniae, Table 1, V3 KP05 506"}, "[7]": {"system": "Acinetobacter baumannii MDR ACB from Libya (V4)", "assay": "MIC assay, CAMHB with alginate oligomer, no visible growth", "format": "cell-based", "from_the_text": "as §1\nThe study described in Example 1 was repeated with the following strains of Acinetobacter baumannii, antibiotics and M-block alginate oligomer in place of OligoG CF-5/20 as detailed in Table 7. The M-block oligomer is 100% M with a DPn of 15 to 18,"}, "[8]": {"system": "V9 (Egypt) Acinetobacter baumannii", "assay": "MIC assay, CAMHB with alginate oligomer, no visible growth", "format": "cell-based"}, "[9]": {"system": "V10 (Egypt) Acinetobacter lwoffii", "assay": "MIC assay, CAMHB with alginate oligomer, no visible growth", "format": "cell-based"}, "V11 5702 (Wales) E. coli": {"system": "V11 5702 (Wales) E. coli", "assay": "MIC assay, CAMHB with alginate oligomer, no visible growth", "format": "cell-based"}, "[10]": {"system": "V12 5725 (Wales) Klebsiella pneumoniae", "assay": "MIC assay, CAMHB with alginate oligomer, no visible growth", "format": "cell-based"}, "V22 6056 Acinetobacter": {"system": "V22 6056 Acinetobacter", "assay": "MIC assay, CAMHB with alginate oligomer, no visible growth", "format": "cell-based, Acinetobacter lwoffii"}, "[11]": {"system": "V23 1322 Burkholderia cepacia", "assay": "MIC assay, CAMHB with alginate oligomer, no visible growth", "format": "cell-based", "conditions": "Table 6, V23"}, "MDR Pseudomonas strains": {"system": "MDR Pseudomonas strains", "assay": "MIC assay of Example 1, summary over the MDR Pseudomonas strains", "format": "cell-based, Pseudomonas aeruginosa"}, "[12]": {"system": "MDR strains of Pseudomonas aeruginosa, Klebsiella pneumoniae, Burkholderia cepacia, Acinetobacter lwoffii, Acinetobacter baumannii and E. coli", "assay": "MIC assay of Example 2, summary over the strains of Tables 4, 5 and 6", "format": "cell-based", "conditions": "Example 2, Tables 4, 5 and 6"}}, "note": "Marks after values point to notes of the source that are not given here.", "data": [{"smiles": "CC1(C)C[C@@H]1C(=O)N/C(=C\\CCCCSC[C@H](N)C(=O)O)C(=O)O", "note": "[Primaxin, Imipenem/cilastatin]", "values": [{"measurement": "MIC", "setting": "[1]; Pseudomonas aeruginosa, ATCC15692", "result": "< 1", "unit": "µg/mL"}, {"measurement": "MIC", "setting": "[1]; Table 1, PA01, OligoCF-5/20 +2% G", "result": "<1", "unit": "µg/mL"}, {"measurement": "MIC", "setting": "[1]; Table 1, PA01, OligoCF-5/20 +6% G", "result": "<1", "unit": "µg/mL"}, {"measurement": "MIC", "setting": "[1]; Table 1, PA01, OligoCF-5/20 +10% G", "result": "<1", "unit": "µg/mL"}, {"measurement": "MIC", "setting": "[2]; Pseudomonas aeruginosa, ATCC39324", "result": "< 1", "unit": "µg/mL"}, {"measurement": "MIC", "setting": "[2]; Table 1, R79, OligoCF-5/20 +2% G", "result": "<1", "unit": "µg/mL"}, {"measurement": "MIC", "setting": "[2]; Table 1, R79, OligoCF-5/20 +6% G", "result": "<1", "unit": "µg/mL"}, {"measurement": "MIC", "setting": "[2]; Table 1, R79, OligoCF-5/20 +10% G", "result": "<1", "unit": "µg/mL"}, {"measurement": "MIC", "setting": "[3]; Pseudomonas aeruginosa", "result": "< 1", "unit": "µg/mL"}, {"measurement": "MIC", "setting": "[3]; Table 1, R80, OligoCF-5/20 +2% G", "result": "<1", "unit": "µg/mL"}, {"measurement": "MIC", "setting": "[3]; Table 1, R80, OligoCF-5/20 +6% G", "result": "<1", "unit": "µg/mL"}, {"measurement": "MIC", "setting": "[3]; Table 1, R80, OligoCF-5/20 +10% G", "result": "<1", "unit": "µg/mL"}, {"measurement": "MIC", "setting": "[4]; OligoCF-5/20 0G", "result": 128, "unit": "µg/mL"}, {"measurement": "MIC", "setting": "[4]; OligoCF-5/20 +2% G", "result": 128, "unit": "µg/mL"}, {"measurement": "MIC", "setting": "[4]; OligoCF-5/20 +6% G", "result": 64, "unit": "µg/mL"}, {"measurement": "MIC", "setting": "[4]; OligoCF-5/20 +10% G", "result": 32, "unit": "µg/mL"}, {"measurement": "MIC", "setting": "[5]; OligoCF-5/20 0G", "result": 512, "unit": "µg/mL"}, {"measurement": "MIC", "setting": "[5]; OligoCF-5/20 +2% G", "result": 256, "unit": "µg/mL"}, {"measurement": "MIC", "setting": "[5]; OligoCF-5/20 +6% G", "result": 256, "unit": "µg/mL"}, {"measurement": "MIC", "setting": "[5]; OligoCF-5/20 +10% G", "result": 128, "unit": "µg/mL"}, {"measurement": "effectiveness in conjunction with alginate oligomers", "setting": "[6]; Example 1, KP05 506", "result": "inconclusive"}, {"measurement": "MIC", "setting": "[6]; OligoCF-5/20 0G", "result": 32, "unit": "µg/mL"}, {"measurement": "MIC", "setting": "[6]; OligoCF-5/20 +2% G", "result": 64, "unit": "µg/mL"}, {"measurement": "MIC", "setting": "[6]; OligoCF-5/20 +6% G", "result": 64, "unit": "µg/mL"}, {"measurement": "MIC", "setting": "[6]; OligoCF-5/20 +10% G", "result": 64, "unit": "µg/mL"}, {"measurement": "MIC", "setting": "[7]; Acinetobacter baumannii", "result": "< 1", "unit": "µg/mL"}, {"measurement": "MIC", "setting": "[7]; Table 1, V4 ACB (Libya), OligoCF-5/20 +2% G", "result": "<1", "unit": "µg/mL"}, {"measurement": "MIC", "setting": "[7]; Table 1, V4 ACB (Libya), OligoCF-5/20 +6% G", "result": "<1", "unit": "µg/mL"}, {"measurement": "MIC", "setting": "[7]; Table 1, V4 ACB (Libya), OligoCF-5/20 +10% G", "result": "<1", "unit": "µg/mL"}, {"measurement": "MIC", "setting": "[8]; Acinetobacter baumannii", "result": 1, "unit": "µg/mL"}, {"measurement": "MIC", "setting": "[8]; Table 5, V9 MDR Acin. baum, OligoCF-5/20 +2% G", "result": 2, "unit": "µg/mL"}, {"measurement": "MIC", "setting": "[8]; Table 5, V9 MDR Acin. baum, OligoCF-5/20 +6% G", "result": "<0.5^† μg/ml"}, {"measurement": "MIC", "setting": "[8]; Table 5, V9 MDR Acin. baum, OligoCF-5/20 +10% G", "result": "<0.5^† μg/ml"}, {"measurement": "MIC", "setting": "[9]; Acinetobacter lwoffii", "result": "< 0.5", "unit": "µg/mL"}, {"measurement": "MIC", "setting": "[9]; Table 5, V10 MDR Acin. lwoff, OligoCF-5/20 +2% G", "result": "<0.5", "unit": "µg/mL"}, {"measurement": "MIC", "setting": "[9]; Table 5, V10 MDR Acin. lwoff, OligoCF-5/20 +6% G", "result": "<0.5", "unit": "µg/mL"}, {"measurement": "MIC", "setting": "[9]; Table 5, V10 MDR Acin. lwoff, OligoCF-5/20 +10% G", "result": "<0.5", "unit": "µg/mL"}, {"measurement": "MIC", "setting": "V11 5702 (Wales) E. coli; Escherichia coli", "result": "< 0.5", "unit": "µg/mL"}, {"measurement": "MIC", "setting": "V11 5702 (Wales) E. coli; Table 5, V11 MDR E.coli, OligoCF-5/20 +2% G", "result": "<0.5", "unit": "µg/mL"}, {"measurement": "MIC", "setting": "V11 5702 (Wales) E. coli; Table 5, V11 MDR E.coli, OligoCF-5/20 +6% G", "result": "<0.5", "unit": "µg/mL"}, {"measurement": "MIC", "setting": "V11 5702 (Wales) E. coli; Table 5, V11 MDR E.coli, OligoCF-5/20 +10% G", "result": "<0.5", "unit": "µg/mL"}, {"measurement": "MIC", "setting": "[10]; Klebsiella pneumoniae", "result": "< 0.5", "unit": "µg/mL"}, {"measurement": "MIC", "setting": "[10]; Table 5, V12 MDR Kleb pneu, OligoCF-5/20 +2% G", "result": "<0.5", "unit": "µg/mL"}, {"measurement": "MIC", "setting": "[10]; Table 5, V12 MDR Kleb pneu, OligoCF-5/20 +6% G", "result": "<0.5", "unit": "µg/mL"}, {"measurement": "MIC", "setting": "[10]; Table 5, V12 MDR Kleb pneu, OligoCF-5/20 +10% G", "result": "<0.5", "unit": "µg/mL"}, {"measurement": "MIC", "setting": "V22 6056 Acinetobacter; Acinetobacter", "result": 8, "unit": "µg/mL"}, {"measurement": "MIC", "setting": "V22 6056 Acinetobacter; Table 5, V22 MDR Acin. lwoff, OligoCF-5/20 +2% G", "result": 8, "unit": "µg/mL"}, {"measurement": "MIC", "setting": "V22 6056 Acinetobacter; Table 5, V22 MDR Acin. lwoff, OligoCF-5/20 +6% G", "result": 8, "unit": "µg/mL"}, {"measurement": "MIC", "setting": "V22 6056 Acinetobacter; Table 5, V22 MDR Acin. lwoff, OligoCF-5/20 +10% G", "result": "4^† μg/ml"}, {"measurement": "MIC", "setting": "[11]; Burkholderia cepacia, Experiment 1 (18-03-10), OligoCF-5/20 0G", "result": 128, "unit": "µg/mL"}, {"measurement": "MIC", "setting": "[11]; Burkholderia cepacia, Experiment 2 (18-03-10), OligoCF-5/20 0G", "result": 256, "unit": "µg/mL"}, {"measurement": "MIC", "setting": "[11]; Burkholderia cepacia, Experiment 3 (19-03-10), OligoCF-5/20 0G", "result": 256, "unit": "µg/mL"}, {"measurement": "MIC", "setting": "[11]; Experiment 1 (18-03-10), OligoCF-5/20 +2% G", "result": 128, "unit": "µg/mL"}, {"measurement": "MIC", "setting": "[11]; Experiment 1 (18-03-10), OligoCF-5/20 +6% G", "result": "64^† μg/ml"}, {"measurement": "MIC", "setting": "[11]; Experiment 1 (18-03-10), OligoCF-5/20 +10% G", "result": "32^† μg/ml"}, {"measurement": "MIC", "setting": "[11]; Experiment 2 (18-03-10), OligoCF-5/20 +2% G", "result": "128^† μg/ml"}, {"measurement": "MIC", "setting": "[11]; Experiment 2 (18-03-10), OligoCF-5/20 +6% G", "result": "128^† μg/ml"}, {"measurement": "MIC", "setting": "[11]; Experiment 2 (18-03-10), OligoCF-5/20 +10% G", "result": "64^† μg/ml"}, {"measurement": "MIC", "setting": "[11]; Experiment 3 (19-03-10), OligoCF-5/20 +2% G", "result": 256, "unit": "µg/mL"}, {"measurement": "MIC", "setting": "[11]; Experiment 3 (19-03-10), OligoCF-5/20 +6% G", "result": 256, "unit": "µg/mL"}, {"measurement": "MIC", "setting": "[11]; Experiment 3 (19-03-10), OligoCF-5/20 +10% G", "result": "128^† μg/ml"}, {"measurement": "effectiveness when used in combination with the alginate oligomers", "setting": "MDR Pseudomonas strains", "result": "more effective"}, {"measurement": "change of MIC with increasing amounts of OligoG CF-5/20", "setting": "[12]", "result": "decreasing MICs"}]}]}
